US20110039721A1, “METHOD FOR PREDICTION ABOUT CARCINOGENICITY OF SUBSTANCE IN RODENT” (Chemicals Evaluation and Research Institute, priority 2007, published 2011)
Where two headings read alike, the source gives them in different places.

Assays:
[1] = test system: mRNA expressed from the genes (A) to (D) in rat liver; test: Behavior of genes (mRNA expression level, oligo-DNA microarray) in rat liver after 28-day oral administration; assay type: in vivo; conditions: for Behavior of gene caused by administration of chemical substance, Gene No. 4846 / Behavior of gene caused by administration of chemical substance, Gene No. 2026 / Behavior of gene caused by administration of chemical substance, Gene No. 4218 / Behavior of gene caused by administration of chemical substance, Gene No. 6182 / Behavior of gene caused by administration of chemical substance, Gene No. 5600: gene group (A); for Behavior of gene caused by administration of chemical substance, Gene No. 4846: Unigene No. Rn.144554; for Behavior of gene caused by administration of chemical substance, Gene No. 2026 / Behavior of gene caused by administration of chemical substance, Gene No. 4218: Unigene No. Rn.167075; for Behavior of gene caused by administration of chemical substance, Gene No. 6182: Unigene No. Rn.5834; for Behavior of gene caused by administration of chemical substance, Gene No. 5600: Unigene No. Rn.9836; for Behavior of gene caused by administration of chemical substance, Gene No. 1494 / Behavior of gene caused by administration of chemical substance, Gene No. 2045 / Behavior of gene caused by administration of chemical substance, Gene No. 2203: gene group (B); for Behavior of gene caused by administration of chemical substance, Gene No. 1494: Unigene No. Rn.1430; for Behavior of gene caused by administration of chemical substance, Gene No. 2045: Unigene No. Rn.19329; for Behavior of gene caused by administration of chemical substance, Gene No. 2203: Unigene No. Rn.21240; for Behavior of gene caused by administration of chemical substance, Gene No. 533 / Behavior of gene caused by administration of chemical substance, Gene No. 725 / Behavior of gene caused by administration of chemical substance, Gene No. 1163 / Behavior of gene caused by administration of chemical substance, Gene No. 4973 / Behavior of gene caused by administration of chemical substance, Gene No. 4095 / Behavior of gene caused by administration of chemical substance, Gene No. 1334 / Behavior of gene caused by administration of chemical substance, Gene No. 6620 / Behavior of gene caused by administration of chemical substance, Gene No. 6303 / Behavior of gene caused by administration of chemical substance, Gene No. 5878 / Behavior of gene caused by administration of chemical substance, Gene No. 1131 / Behavior of gene caused by administration of chemical substance, Gene No. 1562 / Behavior of gene caused by administration of chemical substance, Gene No. 1741 / Behavior of gene caused by administration of chemical substance, Gene No. 893 / Behavior of gene caused by administration of chemical substance, Gene No. 6026 / Behavior of gene caused by administration of chemical substance, Gene No. 154 / Behavior of gene caused by administration of chemical substance, Gene No. 1993 / Behavior of gene caused by administration of chemical substance, Gene No. 813 / Behavior of gene caused by administration of chemical substance, Gene No. 2494 / Behavior of gene caused by administration of chemical substance, Gene No. 2546 / Behavior of gene caused by administration of chemical substance, Gene No. 3776 / Behavior of gene caused by administration of chemical substance, Gene No. 3929 / Behavior of gene caused by administration of chemical substance, Gene No. 1119 / Behavior of gene caused by administration of chemical substance, Gene No. 6742 / Behavior of gene caused by administration of chemical substance, Gene No. 5634: gene group (C); for Behavior of gene caused by administration of chemical substance, Gene No. 533: Unigene No. Rn.106184; for Behavior of gene caused by administration of chemical substance, Gene No. 725: Unigene No. Rn.108075; for Behavior of gene caused by administration of chemical substance, Gene No. 1163: Unigene No. Rn.11766; for Behavior of gene caused by administration of chemical substance, Gene No. 4973: Unigene No. Rn.118529; for Behavior of gene caused by administration of chemical substance, Gene No. 4095: Unigene No. Rn.119024; for Behavior of gene caused by administration of chemical substance, Gene No. 1334 / Behavior of gene caused by administration of chemical substance, Gene No. 6620: Unigene No. Rn.120914; for Behavior of gene caused by administration of chemical substance, Gene No. 6303: Unigene No. Rn.123063; for Behavior of gene caused by administration of chemical substance, Gene No. 5878: Unigene No. Rn.143213; for Behavior of gene caused by administration of chemical substance, Gene No. 1131: Unigene No. Rn.144946; for Behavior of gene caused by administration of chemical substance, Gene No. 1562: Unigene No. Rn.14744; for Behavior of gene caused by administration of chemical substance, Gene No. 1741: Unigene No. Rn.1647; for Behavior of gene caused by administration of chemical substance, Gene No. 893: Unigene No. Rn.164817; for Behavior of gene caused by administration of chemical substance, Gene No. 6026: Unigene No. Rn.167685; for Behavior of gene caused by administration of chemical substance, Gene No. 154: Unigene No. Rn.185941; for Behavior of gene caused by administration of chemical substance, Gene No. 1993: Unigene No. Rn.18728; for Behavior of gene caused by administration of chemical substance, Gene No. 813: Unigene No. Rn.201760; for Behavior of gene caused by administration of chemical substance, Gene No. 2494: Unigene No. Rn.23969; for Behavior of gene caused by administration of chemical substance, Gene No. 2546: Unigene No. Rn.24561; for Behavior of gene caused by administration of chemical substance, Gene No. 3776: Unigene No. Rn.43232; for Behavior of gene caused by administration of chemical substance, Gene No. 3929: Unigene No. Rn.4620; for Behavior of gene caused by administration of chemical substance, Gene No. 1119: Unigene No. Rn.9757; for Behavior of gene caused by administration of chemical substance, Gene No. 6742: Unigene No. Rn.9779; for Behavior of gene caused by administration of chemical substance, Gene No. 5634: Unigene No. Rn.9862; for Behavior of gene caused by administration of chemical substance, Gene No. 5726: gene group (D), Unigene No. Rn.9939
Method in brief: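 Male F344 SPF rats, 5 weeks old, four per group, dosed by oral gavage once daily for 28 days with test chemical or matched-volume solvent. Liver total RNA profiled on oligo-DNA microarray. Change ≥1.5-fold or ≤1/1.5 versus vehicle counted as significant if its direction matched that seen with other carcinogens.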

liver = conditions: cited from earlier work
rodent = conditions: classification of the substance (C+/C−); cited from earlier work
[2] = classification of the substance (M+/M−); cited from earlier work
[3] = classification of the substance (Cr+/Cr−)

| SMILES | Behavior of gene caused by administration of chemical substance, Gene No. 4846 [1] | Behavior of gene caused by administration of chemical substance, Gene No. 2026 [1] | Behavior of gene caused by administration of chemical substance, Gene No. 4218 [1] | Behavior of gene caused by administration of chemical substance, Gene No. 6182 [1] | Behavior of gene caused by administration of chemical substance, Gene No. 5600 [1] | Behavior of gene caused by administration of chemical substance, Gene No. 1494 [1] | Behavior of gene caused by administration of chemical substance, Gene No. 2045 [1] | Behavior of gene caused by administration of chemical substance, Gene No. 2203 [1] | Behavior of gene caused by administration of chemical substance, Gene No. 533 [1] | Behavior of gene caused by administration of chemical substance, Gene No. 725 [1] | Behavior of gene caused by administration of chemical substance, Gene No. 1163 [1] | Behavior of gene caused by administration of chemical substance, Gene No. 4973 [1] | Behavior of gene caused by administration of chemical substance, Gene No. 4095 [1] | Behavior of gene caused by administration of chemical substance, Gene No. 1334 [1] | Behavior of gene caused by administration of chemical substance, Gene No. 6620 [1] | Behavior of gene caused by administration of chemical substance, Gene No. 6303 [1] | Behavior of gene caused by administration of chemical substance, Gene No. 5878 [1] | Behavior of gene caused by administration of chemical substance, Gene No. 1131 [1] | Behavior of gene caused by administration of chemical substance, Gene No. 1562 [1] | Behavior of gene caused by administration of chemical substance, Gene No. 1741 [1] | further results |
| --- | --- | --- | --- | --- | --- | --- | --- | --- | --- | --- | --- | --- | --- | --- | --- | --- | --- | --- | --- | --- | --- |
| Nc1ccc([N+](=O)[O-])cc1N [TS035, 4-Nitro-o-phenylenediamine] | − | + | − | − | − | + | − | − | + | + | + | − | − | + | + | + | − | − | − | + | Behavior of gene caused by administration of chemical substance, Gene No. 893 [1]: −; Behavior of gene caused by administration of chemical substance, Gene No. 6026 [1]: −; Behavior of gene caused by administration of chemical substance, Gene No. 154 [1]: −; Behavior of gene caused by administration of chemical substance, Gene No. 1993 [1]: +; Behavior of gene caused by administration of chemical substance, Gene No. 813 [1]: +; Behavior of gene caused by administration of chemical substance, Gene No. 2494 [1]: −; Behavior of gene caused by administration of chemical substance, Gene No. 2546 [1]: +; Behavior of gene caused by administration of chemical substance, Gene No. 3776 [1]: −; Behavior of gene caused by administration of chemical substance, Gene No. 3929 [1]: −; Behavior of gene caused by administration of chemical substance, Gene No. 1119 [1]: −; Behavior of gene caused by administration of chemical substance, Gene No. 6742 [1]: −; Behavior of gene caused by administration of chemical substance, Gene No. 5634 [1]: +; Behavior of gene caused by administration of chemical substance, Gene No. 5726 [1]: −; Liver carcinogenicity (liver; in vivo): Cr−; Carcinogenicity (rodent): C−; Mutagenicity by Ames test [2]: M+ |
| O=c1c(O)c(-c2ccc(O)c(O)c2)oc2cc(O)cc(O)c12 [TS037, Quercetin] | − | − | − | − | − | − | − | − | − | − | − | − | − | − | − | − | − | − | − | − | Behavior of gene caused by administration of chemical substance, Gene No. 893 [1]: −; Behavior of gene caused by administration of chemical substance, Gene No. 6026 [1]: −; Behavior of gene caused by administration of chemical substance, Gene No. 154 [1]: −; Behavior of gene caused by administration of chemical substance, Gene No. 1993 [1]: −; Behavior of gene caused by administration of chemical substance, Gene No. 813 [1]: −; Behavior of gene caused by administration of chemical substance, Gene No. 2494 [1]: −; Behavior of gene caused by administration of chemical substance, Gene No. 2546 [1]: −; Behavior of gene caused by administration of chemical substance, Gene No. 3776 [1]: −; Behavior of gene caused by administration of chemical substance, Gene No. 3929 [1]: −; Behavior of gene caused by administration of chemical substance, Gene No. 1119 [1]: −; Behavior of gene caused by administration of chemical substance, Gene No. 6742 [1]: −; Behavior of gene caused by administration of chemical substance, Gene No. 5634 [1]: −; Behavior of gene caused by administration of chemical substance, Gene No. 5726 [1]: −; Liver carcinogenicity (liver; [3]): Cr−; Carcinogenicity (rodent): C−; Mutagenicity by Ames test [2]: M+ |
| IC(I)I [TS039, Iodoform] | − | − | − | − | − | + | − | − | − | − | − | − | − | + | + | + | − | − | − | + | Behavior of gene caused by administration of chemical substance, Gene No. 893 [1]: +; Behavior of gene caused by administration of chemical substance, Gene No. 6026 [1]: −; Behavior of gene caused by administration of chemical substance, Gene No. 154 [1]: +; Behavior of gene caused by administration of chemical substance, Gene No. 1993 [1]: −; Behavior of gene caused by administration of chemical substance, Gene No. 813 [1]: −; Behavior of gene caused by administration of chemical substance, Gene No. 2494 [1]: −; Behavior of gene caused by administration of chemical substance, Gene No. 2546 [1]: −; Behavior of gene caused by administration of chemical substance, Gene No. 3776 [1]: −; Behavior of gene caused by administration of chemical substance, Gene No. 3929 [1]: −; Behavior of gene caused by administration of chemical substance, Gene No. 1119 [1]: −; Behavior of gene caused by administration of chemical substance, Gene No. 6742 [1]: +; Behavior of gene caused by administration of chemical substance, Gene No. 5634 [1]: +; Behavior of gene caused by administration of chemical substance, Gene No. 5726 [1]: −; Liver carcinogenicity (liver; [3]): Cr−; Carcinogenicity (rodent): C−; Mutagenicity by Ames test [2]: M+ |
